Among the data in BindingDB's records for doi:10.1021/jm1002827 (Pfizer, 2010) are IC50 values, retold here.

For orientation: IC50 means the midpoint of a concentration-inhibition curve.

This experiment has as its target T1, Estrogen receptor (Homo sapiens, UniProt P03372).
T1 sequence (P03372 whole entry): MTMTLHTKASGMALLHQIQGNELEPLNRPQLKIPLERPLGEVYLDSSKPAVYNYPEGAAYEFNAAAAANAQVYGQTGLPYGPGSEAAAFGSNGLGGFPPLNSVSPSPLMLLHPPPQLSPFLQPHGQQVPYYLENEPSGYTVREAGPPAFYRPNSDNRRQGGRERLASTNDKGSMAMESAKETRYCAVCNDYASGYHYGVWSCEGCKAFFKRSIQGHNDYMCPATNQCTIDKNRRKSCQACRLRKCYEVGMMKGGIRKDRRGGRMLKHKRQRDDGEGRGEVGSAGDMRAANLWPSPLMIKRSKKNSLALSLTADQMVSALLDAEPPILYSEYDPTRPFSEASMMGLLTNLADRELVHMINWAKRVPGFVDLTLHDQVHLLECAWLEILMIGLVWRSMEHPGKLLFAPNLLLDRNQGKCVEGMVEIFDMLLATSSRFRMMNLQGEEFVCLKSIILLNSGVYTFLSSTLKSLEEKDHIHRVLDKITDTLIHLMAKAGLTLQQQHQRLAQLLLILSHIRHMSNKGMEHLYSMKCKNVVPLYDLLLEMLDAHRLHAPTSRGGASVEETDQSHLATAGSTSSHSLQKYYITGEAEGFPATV
Description: Inhibition of estrogen receptor.

With `CCCC1=C(C(=O)OCC)[C@H](c2ccnc3ccccc23)C(C#N)C(C)=N1` (stereo partly drawn) [(R)-Ethyl 5-Cyano-6-methyl-2-propyl-4-quinolin-4-yl-1,4-dihydropyridine-3-carboxylate], the IC50 was more than 10 µM. `CC1=NC(C)=C(C(=O)OC(C)(C)C)[C@H](c2ccc(F)cc2Cl)C1C#N` (stereo partly drawn) [tert-Butyl (4R)-4-(2-Chloro-4-fluorophenyl)-5-cyano-2,6-dimethyl-1,4-dihydropyridine-3-carboxylate] showed an IC50 of more than 10 µM.
